Measured values reported in patent US20100323021A1, “ANTITUMORAL TREATMENTS” (PHARMA MAR, S.A., priority 2008, published 2010).

Legend:
[1] = tested on: human cervical epithelium HeLa tumor cells; experiment: Antiproliferation assay (WST-1 cell viability); assay type: cell-based; settings: 24 h incubation, conjugates added at a peptide concentration of 1×10^−5 M
Method: The degree of cytotoxic activity of single peptides (P1 and P2), single gold nanoparticle solutions (AuNP-20 and AuNP-40) and their respective conjugates was determined by cell viability testing using the WST-1 assay in human cervical epithelium HeLa tumor cells, following 24 h of incubation. Each assay was run in sextuplicate, and the whole experiment was run in triplicate.
HeLa cell line (ATTC no CCL-2) was maintained in Dulbecco Modified Eagle's Minimal Essential Medium (DMEM) low glucose medium (Biological Industries) containing 10% foetal calf serum (FCS), 2 mM glutamine, 50 U/mL penicillin, and […] streptomycin at 37° C. in a controlled 5% CO2 atmosphere.
For cell viability experiments, exponentially growing HeLa cells were detached from the culture flasks using a trypsin-0.25% ethylenediaminetetraacetic acid (EDTA) solution and the cell suspension was seeded at a concentration of 3.5×10^3 cells/cm^2 onto glass coverslips (Nalge Nunc International, Rochester, N.Y.). WST 1 assays were carried out 24 h later, when the confluence was approximately 70-80%. Non-adherent cells were washed away and attached cells were incubated at 37° C. in 5% CO2 in DMEM with a known concentration of gold nanoparticles.
For each assay, 3.5×10^3 cells/cm^2 were seeded onto a 96-well plate (Nalge Nunc) and cultured for 24 h. […]

[2] = tested on: human tumor cell types such as breast, prostate, and melanoma; settings: xenografted murine models; cited from earlier work
[3] = tested on: mouse leukemia (P388); settings: cited from earlier work
[4] = tested on: colon (HT-29); settings: cited from earlier work
[5] = tested on: non-small cell lung (A549); settings: cited from earlier work

In the case of `C/C=C1\NC(=O)[C@H](Cc2ccccc2)NC(=O)[C@@H](C(C)C)NC(=O)[C@@H]([C@@H](C)CC)NC(=O)[C@H](NC(=O)[C@H](NC(=O)[C@H](CCCN)NC(=O)[C@H]2CCCN2C(=O)[C@H](NC(=O)[C@@H](NC(=O)[C@@H](NC(=O)[C@@H](CS)NC(=O)CCCC(C)C)[C@@H](C)O)C(C)C)C(C)C)[C@@H](C)CC)[C@@H](C)OC(=O)[C@H](C(C)C)NC1=O` [P1], the “inhibition (cytotoxicity against HeLa cells)” value [1] is reported as 50%.
In the case of `C/C=C1\NC(=O)[C@H](Cc2ccccc2)NC(=O)[C@@H](C(C)C)NC(=O)[C@@H]([C@@H](C)CC)NC(=O)[C@H](NC(=O)[C@H](NC(=O)[C@H](CCCN)NC(=O)[C@H]2CCCN2C(=O)[C@H](NC(=O)[C@@H](NC(=O)[C@@H](NC(=O)[C@H](CS)NC(=O)CCCC(C)C)[C@@H](C)O)C(C)C)C(C)C)[C@@H](C)CC)[C@@H](C)OC(=O)[C@H](C(C)C)NC1=O` [P2], the “inhibition (cytotoxicity against HeLa cells)” value [1] is reported as 10%.
In the case of `C/C=C1\NC(=O)[C@H](Cc2ccccc2)NC(=O)[C@@H](C(C)C)NC(=O)[C@@H]([C@@H](C)CC)NC(=O)[C@H](NC(=O)[C@H](NC(=O)[C@H](CCCN)NC(=O)[C@H]2CCCN2C(=O)[C@H](NC(=O)[C@@H](NC(=O)[C@@H](NC(=O)[C@H](NC(=O)CC[C@@H](C)CC)C(C)C)[C@@H](C)O)C(C)C)C(C)C)[C@@H](C)CC)[C@@H](C)OC(=O)[C@H](C(C)C)NC1=O` [PMO2734], the in vivo activity [2] is listed as “significant in vivo activity”.
In the case of `C/C=C1\NC(=O)[C@H](Cc2ccccc2)NC(=O)[C@@H](C(C)C)NC(=O)[C@@H]([C@@H](C)CC)NC(=O)[C@H](NC(=O)[C@H](NC(=O)[C@H](CCCN)NC(=O)[C@H]2CCCN2C(=O)[C@H](NC(=O)[C@@H](NC(=O)[C@@H](NC(=O)[C@H](NC(=O)CCCC(C)C)C(C)C)[C@@H](C)O)C(C)C)C(C)C)[C@@H](C)CC)[C@@H](C)OC(=O)[C@H](C(C)C)NC1=O` [Kahalalide F], the in vitro activity [3] is listed as “micromolar activity”, the in vitro activity [4] is listed as “micromolar activity” and the in vitro activity [5] is listed as “micromolar activity”.
